Experiments:
[1] = molecular target: T1, Polyunsaturated fatty acid 5-lipoxygenase (Rattus norvegicus, UniProt P12527); experiment: Inhibitory activity against rat basophilic leukemia cell 5-lipoxygenase (5-LO)
T1 sequence (P12527 whole entry): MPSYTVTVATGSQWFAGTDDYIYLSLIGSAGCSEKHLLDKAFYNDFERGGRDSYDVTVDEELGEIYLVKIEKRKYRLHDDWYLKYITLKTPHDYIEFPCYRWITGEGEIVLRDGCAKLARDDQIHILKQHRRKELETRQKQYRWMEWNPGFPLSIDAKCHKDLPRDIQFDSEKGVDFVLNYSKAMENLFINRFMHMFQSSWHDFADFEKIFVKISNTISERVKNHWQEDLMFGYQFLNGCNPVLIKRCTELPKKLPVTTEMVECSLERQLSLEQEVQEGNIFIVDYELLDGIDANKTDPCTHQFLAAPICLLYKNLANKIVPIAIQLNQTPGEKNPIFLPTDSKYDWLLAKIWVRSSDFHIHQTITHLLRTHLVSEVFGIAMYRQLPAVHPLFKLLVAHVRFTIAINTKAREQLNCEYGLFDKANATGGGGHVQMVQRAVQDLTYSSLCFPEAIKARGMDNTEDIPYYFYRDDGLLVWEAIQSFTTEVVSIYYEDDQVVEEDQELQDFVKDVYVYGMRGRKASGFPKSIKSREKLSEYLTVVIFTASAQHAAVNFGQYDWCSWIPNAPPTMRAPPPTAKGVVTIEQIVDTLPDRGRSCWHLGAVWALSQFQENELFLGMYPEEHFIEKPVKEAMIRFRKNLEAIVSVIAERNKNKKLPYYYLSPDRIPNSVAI

[2] = molecular target: T2, Polyunsaturated fatty acid lipoxygenase ALOX12 (Homo sapiens, UniProt P18054); experiment: Inhibitory activity against human platelet 12-lipoxygenase
T2 sequence (P18054 whole entry): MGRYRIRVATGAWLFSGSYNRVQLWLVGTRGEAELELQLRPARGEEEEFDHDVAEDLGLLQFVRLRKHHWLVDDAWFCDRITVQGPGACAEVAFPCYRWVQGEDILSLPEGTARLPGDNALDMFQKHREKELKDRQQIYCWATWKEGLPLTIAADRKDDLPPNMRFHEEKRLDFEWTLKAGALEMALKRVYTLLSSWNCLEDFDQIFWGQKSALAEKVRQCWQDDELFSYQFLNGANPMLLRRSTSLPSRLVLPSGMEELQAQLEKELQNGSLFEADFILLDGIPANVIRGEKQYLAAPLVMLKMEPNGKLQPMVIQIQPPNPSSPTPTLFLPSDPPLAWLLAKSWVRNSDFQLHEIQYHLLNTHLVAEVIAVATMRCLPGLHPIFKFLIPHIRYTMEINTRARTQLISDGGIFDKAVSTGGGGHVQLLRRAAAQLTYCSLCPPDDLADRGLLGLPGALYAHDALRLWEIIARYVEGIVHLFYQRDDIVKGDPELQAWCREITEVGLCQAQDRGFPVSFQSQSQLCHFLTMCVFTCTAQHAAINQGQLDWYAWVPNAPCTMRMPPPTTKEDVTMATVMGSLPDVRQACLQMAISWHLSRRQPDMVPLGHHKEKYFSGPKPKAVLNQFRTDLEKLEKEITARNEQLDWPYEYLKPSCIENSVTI

IC50 [1]: 0.28 µM | IC50 [2]: 5 µM
Compound: O=C(Nc1ccc(CCc2ccc(O)c(O)c2)cc1)c1ccccc1O

Reference: ChEMBL document CHEMBL1128909, “Catechol based inhibitors of 15-lipoxygenase” (Bioorg Med Chem Lett, 1996)
